In patent US8648079B2, “Heterocyclic compounds” (Takeda Pharmaceutical Company Limited, priority 2011, dated 2014):

Legend:
[1] = target: T1, human CH24H (Homo sapiens, UniProt Q9Y6A2); assay: Measurement of CH24H inhibitory activity (24-HC produced from [14C] cholesterol by human CH24H lysate); type: biochemical; details: 1 μM test compound, [14C] cholesterol 15 μM, 37° C., 5 hr, read-out: Inhibitory rate (%) at 1 μM
T1 construct: Using Full-Length Mammalian Gene Collection No. 4819975 (Invitrogen) as a template; made in house; host or cells: FreeStyle 293-F cells (transient transfection with pcDNA3.1(+)/hCH24H); crude lysate supernatant
Procedure: The expression of human CH24H was performed using FreeStyle 293 Expression System (Invitrogen). According to the manual attached to FreeStyle 293 Expression System and using the plasmid DNA (pcDNA3.1(+)/hCH24H) for human CH24H expression constructed in Experimental Example 1, a transient expression using FreeStyle 293-F cell was performed. After transfection, the cells were cultured with shaking at 37° C., 8% CO2, 125 rpm for 2 days. The cells were collected by centrifugation, and suspended in a buffer for suspension (100 mM potassium phosphate (pH 7.4), 0.1 mM EDTA, 1 mM DTT, 20% Glycerol). The suspended product was disrupted by a polytron homogenizer (manufactured by Kinematica), and centrifuged at 9000×g for 10 min, and the supernatant was collected. The collected supernatant was cryopreserved (−80° C.) as a human CH24H lysate standard product.
For the measurement of CH24H inhibitory activity, using the human CH24H lysate prepared in Experimental Example 2, the amount of 24-HC produced from cholesterol by catalysis of CH24H was measured in the presence of a test compound, and the amount was compared with that in the absence of the test compound. That is, a test compound solution at various concentrations were mixed with a reaction buffer (50 mM potassium phosphate containing 0.1% BSA and Complete, EDTA-free protease inhibitor cocktail, pH 7.4) and human CH24H lysate. Then, [^14C] cholesterol (53 mCi/mmol specific activity, 15 μM) was added, and CH24H reaction was performed at 37° C. for 5 hr. After completion of the reaction, a quenching solution consisting of chloroform/methanol/distillation water (2:2:1 v/v) was added, and the resulting 24-HC was extracted by shaking. The extract was applied to silica gel thin layer chromatography (ethyl acetate:toluene=4:6), and the obtained ^14C-24HC fraction was measured with BAS2500 (Fujifilm Corporation).
The inhibitory rate (%) was calculated from the ratio of radioactivity in the presence of a test compound relative to the radioactivity in the absence of the test compound.

[2] = tested on: APP/PS1 double transgenic mouse; assay: Y-maze test using APP/PS1 double transgenic mouse (spontaneous alternation behavior); type: in vivo; details: Y-maze at 16 hours after the 13th administration
Procedure: Animals used were 3-month-old female APP/PS1 double transgenic mice (10-15 mice/group). A test compound was suspended in a 0.5% aqueous methylcellulose [133-14255 WAKO] solution (1 mg/mL). The body weight of the mice was measured, and the solution was forcibly administered orally and repeatedly once a day for 14 days. At 16 hours after the 13th administration, spontaneous alternation behavior in Y-maze test was evaluated. Using a particular arm of a Y-shaped test apparatus as the starting point, the frequency of moving to a different arm was counted for 5 min. The first two times of entry were excluded from the total number of entry. In addition, the mice that entered less than 10 times in total were excluded. Movement to an arm different from the arm into which the mouse entered last but one was considered an alternation behavior, and the ratio to the total number of moving was calculated as a spontaneous alternation behavior rate. As comparison subjects, a control group (test compound-non treatment group) and a control group in wild-type mice were used.

T1 sequence (Q9Y6A2 whole entry): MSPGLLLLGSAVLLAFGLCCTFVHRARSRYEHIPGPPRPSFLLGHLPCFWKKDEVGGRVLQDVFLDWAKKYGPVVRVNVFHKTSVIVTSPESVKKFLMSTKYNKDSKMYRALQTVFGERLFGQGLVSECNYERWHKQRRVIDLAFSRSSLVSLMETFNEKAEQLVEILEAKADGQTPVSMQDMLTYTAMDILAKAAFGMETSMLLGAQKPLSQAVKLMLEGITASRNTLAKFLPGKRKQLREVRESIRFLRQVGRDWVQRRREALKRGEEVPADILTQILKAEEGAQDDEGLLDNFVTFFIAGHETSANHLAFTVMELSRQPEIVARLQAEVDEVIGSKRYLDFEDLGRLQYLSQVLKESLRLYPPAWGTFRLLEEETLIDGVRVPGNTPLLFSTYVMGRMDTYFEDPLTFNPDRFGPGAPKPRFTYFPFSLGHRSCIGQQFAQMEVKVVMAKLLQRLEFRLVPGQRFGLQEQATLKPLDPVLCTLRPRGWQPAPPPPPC

| Structure (SMILES) | inhibition at 1 µM [1] [%] | Spontaneous alternation behavior rate (%) ([2]; 10 mg/kg orally once a day) | Spontaneous alternation behavior rate (%) ([2]; 30 mg/kg orally once a day) |
| --- | --- | --- | --- |
| N#Cc1ccc(CC2(O)CCN(C(=O)c3cccnc3-c3ccncc3)CC2)cc1 [Example 70, 4-((1-(2,4′-bipyridin-3-ylcarbonyl)-4-hydroxypiperidin-4-yl)methyl)benzonitrile] | 89 | – | – |
| O=C(c1ncsc1-c1ccncc1)N1CCC(O)(Cc2ccccc2)CC1 [Example 25, (4-benzyl-4-hydroxypiperidin-1-yl)(5-(pyridin-4-yl)-1,3-thiazol-4 yl)methanone] | 94 | – | – |
| Cn1ncc(-c2ccncc2)c1C(=O)N1CCC(O)(Cc2ccccc2)CC1 [Example 32, (4-benzyl-4-hydroxypiperidin-1-yl)(1-methyl-4-(pyridin-4-yl)-1H-pyrazol-5-yl)methanone] | 92 | – | – |
| O=C(c1cccnc1-c1ccncc1)N1CCC(O)(Cc2ccc(F)cc2F)CC1 [Example 87, 2,4′-bipyridin-3-yl(4-(2,4-difluorobenzyl)-4-hydroxypiperidin-1-yl)methanone] | 89 | – | – |
| COC1(Cc2ccccc2)CCN(C(=O)c2cc(C)ccc2-c2ccncc2)CC1 [Example 59, (4-benzyl-4-methoxypiperidin-1-yl)(5-methyl-2-(pyridin-4-yl)phenyl)methanone] | 83 | – | – |
| O=C(c1cccnc1-c1ccncn1)N1CCC(O)(Cc2ccccc2)CC1 [Example 54, (4-benzyl-4-hydroxypiperidin-1-yl)(2-(pyrimidin-4-yl)pyridin-3-yl)methanone] | 90 | – | – |
| O=C(c1cc(F)c(F)cc1-c1ccncn1)N1CCC(O)(Cc2ccccn2)CC1 [Example 56, (4,5-difluoro-2-(pyrimidin-4-yl)phenyl)(4-hydroxy-4-(pyridin-2-ylmethyl)piperidin-1-yl)methanone] | 90 | – | – |
| Cc1nc(-c2ccncn2)c(C(=O)N2CCC(O)(Cc3ccccc3)CC2)s1 [Example 60, (4-benzyl-4-hydroxypiperidin-1-yl)(2-methyl-4-(pyrimidin-4-yl)-1,3-thiazol-5-yl)methanone] | 82 | – | – |
| O=C(c1cccnc1-c1ccncc1)N1CCC(O)(Cc2ccc(F)c(F)c2)CC1 [Example 86, 2,4′-bipyridin-3-yl(4-(3,4-difluorobenzyl)-4-hydroxypiperidin-1-yl)methanone] | 89 | – | – |
| O=C(c1scnc1-c1ccncc1)N1CCC(O)(Cc2ccccc2)CC1 [Example 26, (4-benzyl-4-hydroxypiperidin-1-yl)(4-(pyridin-4-yl)-1,3-thiazol-5-yl)methanone] | 92 | – | – |
| COc1ccc(CC2(O)CCN(C(=O)c3cccnc3-c3ccncc3)CC2)cc1 [Example 97, 2,4′-bipyridin-3-yl(4-hydroxy-4-(4-methoxybenzyl)piperidin-1-yl)methanone] | 87 | – | – |
| O=C(c1ccccc1-c1cnco1)N1CCC(O)(Cc2ccc(F)cc2F)CC1 [Example 102, (4-(2,4-difluorobenzyl)-4-hydroxypiperidin-1-yl)(2-(1,3-oxazol-5-yl)phenyl)methanone] | 89 | – | – |
| O=C(c1c(C(F)(F)F)n[nH]c1-c1ccncc1)N1CCC(O)(Cc2ccccc2)CC1 [Example 41, (4-benzyl-4-hydroxypiperidin-1-yl)(5-(pyridin-4-yl)-3-(trifluoromethyl)-1H-pyrazol-4-yl)methanone] | 93 | – | – |
| O=C(c1ccccc1-c1ccncn1)N1CCC(O)(Cc2ccccn2)CC1 [Example 34, (4-hydroxy-4-(pyridin-2-ylmethyl)piperidin-1-yl)(2-(pyrimidin-4-yl)phenyl)methanone] | 90 | – | – |
| Cc1ccc(-c2ccncc2)c(C(=O)N2CCC(O)(CC3=NCCS3)CC2)c1 [Example 39, (4-(4,5-dihydro-1,3-thiazol-2-ylmethyl)-4-hydroxypiperidin-1-yl)(5-methyl-2-(pyridin-4-yl)phenyl)methanone] | 90 | – | – |
| O=C(c1cc(F)ccc1-c1ccncn1)N1CCC(O)(Cc2ccccn2)CC1 [Example 58, (5-fluoro-2-(pyrimidin-4-yl)phenyl)(4-hydroxy-4-(pyridin-2-ylmethyl)piperidin-1-yl)methanone] | 84 | – | – |
| Cc1ccc(-c2ccncc2)c(C(=O)N2CCC(O)(Cc3ccccc3)CC2)c1 [Example 1, (4-benzyl-4-hydroxypiperidin-1-yl)(5-methyl-2-(pyridin-4-yl)phenyl)methanone] | 92 | – | – |
| O=C(c1ccccc1-c1ccncn1)N1CCC(O)(Cc2ccccc2)CC1 [Example 14, (4-benzyl-4-hydroxypiperidin-1-yl)(2-(pyrimidin-4-yl)phenyl)methanone] | 92 | – | – |
| O=C(c1cccnc1-c1ccncc1)N1CCC(O)(Cc2ccc(F)cc2)CC1 [Example 67, 2,4′-bipyridin-3-yl(4-(4-fluorobenzyl)-4-hydroxypiperidin-1-yl)methanone] | 89 | – | – |
| O=C(c1ccccc1-c1cnco1)N1CCC(O)(Cc2ccccc2)CC1 [Example 82, (4-benzyl-4-hydroxypiperidin-1-yl)(2-(1,3-oxazol-5-yl)phenyl)methanone] | 87 | – | – |
| O=C(c1ccc(F)cc1-c1ccncn1)N1CCC(O)(Cc2ccccn2)CC1 [Example 63, (4-fluoro-2-(pyrimidin-4-yl)phenyl)(4-hydroxy-4-(pyridin-2-ylmethyl)piperidin-1-yl)methanone] | 82 | – | – |
| O=C(c1cccnc1-c1ccncc1)N1CCC(O)(Cc2ccccc2)CC1 [Example 44, (4-benzyl-4-hydroxypiperidin-1-yl)(2,4′-bipyridin-3-yl)methanone] | 95 | 71 | 71 |
| Cc1ccc(-c2ccncc2)c(C(=O)N2CCC(O)(C(C)C)CC2)c1 [Example 5, (4-hydroxy-4-isopropylpiperidin-1-yl)(5-methyl-2-(pyridin-4-yl)phenyl)methanone] | 70 | – | – |
| O=C(c1ccc(F)cc1-c1ccncc1)N1CCC(O)(Cc2ccccn2)CC1 [Example 30, (4-fluoro-2-(pyridin-4-yl)phenyl)(4-hydroxy-4-(pyridin-2-ylmethyl)piperidin-1-yl)methanone] | 91 | – | – |
| O=C(c1c(-c2ccncc2)ccc2c1OCO2)N1CCC(O)(Cc2ccccc2)CC1 [Example 9, (4-benzyl-4-hydroxypiperidin-1-yl)(5-(pyridin-4-yl)-1,3-benzodioxol-4-yl)methanone] | 87 | – | – |
| O=C(c1cccnc1-c1ccncn1)N1CCC(O)(Cc2ccc(F)cc2F)CC1 [Example 105, (4-(2,4-difluorobenzyl)-4-hydroxypiperidin-1-yl)(2-(pyrimidin-4-yl)pyridin-3-yl)methanone] | 95 | – | – |
| Cc1noc(-c2ccncc2)c1C(=O)N1CCC(O)(Cc2ccccc2)CC1 [Example 2, (4-benzyl-4-hydroxypiperidin-1-yl)(3-methyl-5-(pyridin-4-yl)-1,2-oxazol-4-yl)methanone] | 90 | – | – |
| O=C(c1cccnc1-c1ccncn1)N1CCC(O)(Cc2ccc(F)cc2)CC1 [Example 92, (4-(4-fluorobenzyl)-4-hydroxypiperidin-1-yl)(2-(pyrimidin-4-yl)pyridin-3-yl)methanone] | 88 | 62 | 72 |
